Data set [1] deals with intracellular T. cruzi amastigotes, strain Silvio X10/7 A1. The data set is described as follows: intracellular T. cruzi amastigote potency assay. It is filed as cell-based. The following applies: Trypanosoma cruzi.
A further data set deals with Vero host cells. The data set is described as follows: cytotoxicity against host cells in intracellular amastigote assay. It is filed as cell-based. The conditions noted are these: host cell cytotoxicity; for EC50: Chlorocebus sabaeus, Vero.
Data set [2] has as its system T. cruzi culture derived trypomastigotes, strain Silvio X10/7 A1. The data set is described as follows: trypomastigote assay. It is filed as cell-based. The conditions noted are these: Trypanosoma cruzi. The procedure: Trypomastigote assays using strain Silvio X10/7 subclone A1 were carried out as described in ([19]). Parasite culture and potency determinations for panel of strains were performed as in ([19]). Strains used were M6241 clone 6 (DTU III), ERA clone 2 (DTU IV), PAH179 clone 5 (DTU V) and CL Brener-Luciferase (PpyRE9h-expressing T. cruzi, same strain that is used in animal model studies ([67])) (DTU VI). […] For Y strain compound exposure time was 3 days. Rate-of-kill assays were carried out as described in ([39]).

A further data set concerns HepG2 cells. As to the kind of experiment: general cytotoxicity assay in HepG2 cells. The following applies: Homo sapiens, HepG2, 48 h, CellTiter-Glo. In kind it is cell-based. The procedure:
This assay was previously described ([36]). Briefly, actively growing HepG2 cells were removed from a T-175 TC flask using 5 ml Eagle’s MEM (containing 10 % FBS, 1 % NEAA, 1 % penicillin/ streptomycin. Carbon source is D-glucose at 1 g/l) and dispersed in the medium by repeated pipetting. Seeding density was checked to ensure that new monolayers were not more than 50 % confluent at the time of harvesting. Cell suspension was added to 500 ml of the same medium at a final density of 1.2 x 10^5 cells/ml. This cell suspension was dispensed (25 μl, 3000 cells per well) into 384-well clear-bottom plates using a Multidrop Combi dispenser. Prior to addition of the cell suspension, the screening compounds (250 nl) were predispensed into the plates with an EchoH liquid handler. Plates were incubated for 48 h at 37°C, 5% CO2. After incubation, plates equilibrated at room temperature for 30 min before proceeding to develop the luminescent signal. The signal developer, CellTiter-Glo Reagent, was allowed to equilibrate at room temperature for 30 min and added to the plates ([…]) using a Multidrop Combi dispenser. Plates were left for 10 min at room temperature for stabilization and then read using a ViewLux.
For orientation: Cellular ATP, detected with luciferase, serves as a proxy for viable cell number.

Data set [3] is described as follows: chromatographic LogD assay. It is filed as physicochemical. The conditions noted are these: reversed phase HPLC column (Gemini NX C18), pH 7.4; read-out: Chrom logD pH 7.4. The procedure:
The chromatographic hydrophobicity index (CHI) values were measured using reversed phase HPLC column (50 mm × 2 mm, 3 μm Gemini NX C18, Phenomenex, U.K.) with fast acetonitrile gradient at starting mobile phase at pH 7.4. CHI values were derived directly from the gradient retention times by using a calibration line obtained for standard compounds. The CHI value approximates to the volume % organic concentration when the compound elutes. CHI was linearly transformed into ChromlogD by least-squares fitting of experimental CHI values to calculated log P (ClogP) values for over 20K research compounds using the following formula: ChromlogD = 0.0857CHI − 2.00. The average error of the assay is ±3 CHI units or ± 0.25 ChromlogD.

The next data set can be described thus: Property Forecast Index. In kind it is physicochemical. The conditions noted are these: number of aromatic rings + ChromLogD at pH 7.4.
Data set [4] can be described thus: kinetic aqueous solubility (CLND). In kind it is physicochemical. The following applies: phosphate buffered saline, aqueous buffer, kinetic from dmso stock, pH 7.4. The procedure:
The eluent is quantified by suitably calibrated flow injection CLND. This assay has a dynamic range between the lower detection limit of 1 and 500 μM, governed by the protocol’s 1:20 dilution into pH 7.4 phosphate buffer solution from nominal 10 mM DMSO stock.

In data set [5] the test system is intracellular T. cruzi Silvio X10/7 A1 in Vero cells. The data set is described as follows: washout outgrowth assay. It is filed as cell-based, Trypanosoma cruzi. The following applies: 8-days treatment, BNZ at 12.5× EC50 (Fig. S7). The method, then:
Washout outgrowth assay: Vero cells were infected overnight in T600 flasks at a multiplicity of infection (MOI) 5 with T. cruzi Silvio X10/7 A1 trypomastigotes, followed by washing of the Vero monolayer to remove free trypomastigotes. 24 hours later the monolayer was trypsinised, 5.3 x 10^6 Vero cells were plated in T75 tissue culture flasks (in 20 ml MEM-Glutamax (ThermoFisher), 1% Fetal Calf Serum (FCS)), and treatment was started. For ten-day treatments, medium with compounds was replaced after the initial 5 days. For 16 day treatments the compounds were replaced every four days. For compound washout, all medium was aspirated, and flasks were washed three times with 10 ml serum-free MEM medium followed by a final aspiration and addition of 20 ml MEM-Glutamax (ThermoFisher) supplemented with 1% FCS. The cultures were then maintained until trypomastigotes were detected by light microscopy. Medium was replaced twice weekly and prior to each medium replacement microscopic evaluation was carried out (five fields per flask) for up to 60 days post washout. Robustness of the data was confirmed by profiling multiple compounds from the pyrrolopyrimidine series in a single experiment (compounds 2,3 and 4 in Fig. 2 and Fig. S17) as well as comparing results from independent experiments (compound 2 in Fig. 2, Fig. S5 and Fig. S7).

Data set [6] deals with wild-type T. cruzi epimastigotes. The data set is described as follows: epimastigote drug sensitivity assay, wild-type. In kind it is cell-based. The following applies: Trypanosoma cruzi. The method, then: (§1) T. cruzi epimastigotes from the Silvio strain (MHOM/BR/78/Silvio; clone X10/7A) were grown at 28°C in RTH/FBS medium ([80]).
(§2) T. cruzi epimastigote assays carried out as described previously ([43]).

The target in data set [7] is T. cruzi complex III (epimastigote lysates) (Trypanosoma cruzi, UniProt Q9T479). As to the kind of experiment: T. cruzi complex III assay. It is filed as biochemical. The conditions noted are these: decylubiquinol substrate. The procedure: Complex III activity within these lysates was monitored in the presence and absence of compound 3, compound 5 and related analogues from this series, using decylubiquinol as a pseudo-substrate ([43]).
Sequence of T. cruzi complex III (epimastigote lysates) (Q9T479 entry or part of it, one chain of several): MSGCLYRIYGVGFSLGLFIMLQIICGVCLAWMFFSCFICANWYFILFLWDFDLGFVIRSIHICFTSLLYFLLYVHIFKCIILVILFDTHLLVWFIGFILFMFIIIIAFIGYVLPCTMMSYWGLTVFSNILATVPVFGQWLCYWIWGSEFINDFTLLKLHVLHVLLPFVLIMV
Measurement of complex III activity and inhibition were performed as described previously ([43]).

The subject of data set [8] is T. cruzi epimastigotes bearing mutations in cytochrome b. The data set is described as follows: epimastigote drug sensitivity assay, cytochrome b mutant / resistant lines. In kind it is cell-based, Trypanosoma cruzi. The conditions noted are these: for EC50: Trypanosoma cruzi. The procedure: as §1, §2
Compound-resistant cell lines were generated by subculturing clones of wild-type T. cruzi epimastigotes in the continuous presence of compound 3 or compound 5. Starting at sublethal concentrations, drug concentrations in 3 independent cultures were increased in a stepwise manner, usually by 2-fold. When parasites were able to survive and grow in compound concentrations equivalent to >30-fold their established EC50 value, they were cloned by limiting dilution in the presence of compound. Three independent clones were selected from each compound for further study.

In a further data set the target is T. cruzi CYP51 (Trypanosoma cruzi, UniProt Q7Z1V1). As to the kind of experiment: T. cruzi CYP51 biochemical assay.
Sequence of T. cruzi CYP51 (Q7Z1V1 whole entry): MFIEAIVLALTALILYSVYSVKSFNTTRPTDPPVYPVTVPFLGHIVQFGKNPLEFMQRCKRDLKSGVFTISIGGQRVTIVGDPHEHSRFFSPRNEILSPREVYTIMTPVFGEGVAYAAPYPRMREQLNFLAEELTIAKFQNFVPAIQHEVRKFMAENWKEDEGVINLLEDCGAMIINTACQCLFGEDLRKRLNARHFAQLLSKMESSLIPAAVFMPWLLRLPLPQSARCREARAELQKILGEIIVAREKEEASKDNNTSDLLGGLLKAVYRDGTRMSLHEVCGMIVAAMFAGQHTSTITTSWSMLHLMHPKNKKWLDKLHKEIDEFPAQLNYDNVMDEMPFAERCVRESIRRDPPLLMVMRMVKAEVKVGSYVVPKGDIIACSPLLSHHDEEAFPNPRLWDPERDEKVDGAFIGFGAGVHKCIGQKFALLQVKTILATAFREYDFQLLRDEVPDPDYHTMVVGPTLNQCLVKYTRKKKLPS
A short description of another data set: FaSSIF solubility assay. In kind it is physicochemical. The conditions noted are these: pH 6.5, 4 h. The method, then:
Solubility of test compounds in fasted simulated intestinal fluid (FaSSIF) was determined at pH 6.5 after 4 h equilibration at rt. An amount of1 mL of FaSSIF buffer (3 mM sodium taurocholate, 0.75 mM lecithin in sodium phosphate buffer at pH 6.5) was added to manually weighed 1 mg of solid compound in a 2 mL HPLC autosampler vial. The resulting suspension was shaken at 900 rpm for 4 h at rt and then transferred to a Multiscreen HTS, 96-well solubility filter plate. The residual solid was removed by filtration. The supernatant solution was quantified by HPLC−UV using single-point calibration of a known concentration of the compound in DMSO. The dynamic range of the assay was 1−1000 μg/mL.

On the set-up of data set [9]: method as in PMID 21073628, PMID 20932171. The conditions noted are these: patients; cited from earlier work.
Setting [10] is: intracellular amastigotes Silvio X10/7 A1, 96 h, ± SD, min. three experiments, read-out: Amastigotes pEC50 (converted).
[11] abbreviates: read-out: Vero pEC50 (converted).
Setting [12] is: read-out: Trypomastigotes pEC50 (converted).

SMILES strings stand for the structures. In brackets after ≈: the same amount, converted by molar mass. Read-outs that look alike come from different tables or passages of the source.

As a reminder, the solubility is the dissolved amount per volume that the medium holds. Read a high solubility as much dissolved substance. Consider `CC[C@@H]([C@H](C)O)n1ncn(-c2ccc(N3CCN(c4ccc(OC[C@@H]5CO[C@@](Cn6cncn6)(c6ccc(F)cc6F)C5)cc4)CC3)cc2)c1=O` [Posaconazole, reference compound], for which the EC50 was 2.51 nM in data set [1] (setting [10]); 3 nM in data set [1] (read-out: Amastigotes EC50); above 50000 nM in the data set with Vero host cells (read-out: Vero EC50); above 50100 nM in the data set with Vero host cells (setting [11]); above 50000 nM in [2] (read-out: Trypomastigotes EC50); above 50100 nM in data set [2] (setting [12]). Also, the EC50 in the data set on HepG2 cells (read-out: HepG2 EC50) and with HepG2 cells (read-out: HepG2 pEC50 (converted)) was above 100000 nM in each case. Also, the chromatographic logD in [3] was 6.1. Also, in the data set “Property Forecast Index”, the PFI was found to be 11.1. This compound came in with a solubility at 1 h in [4] of 14 µg/mL (≈ 20 µM). Further, in [5], the “washout outcome in combination with BNZ” value is given as “failed to eliminate all parasites”.

By IC50 is commonly meant the point on the concentration scale where inhibition reaches its midpoint. Consider `COc1cc(F)ccc1-c1c(C)n(C)c2nc(N)nc(C)c12` [Compound 5, 5-(4-Fluoro-2-methoxyphenyl)-4,6,7-trimethyl-7H-pyrrolo[2,3-d]pyrimidin-2-amine], for which the EC50 in [6] (read-out: EC50 wild-type) came out at 2.4 ± 0.1 nM; in data set [6] (read-out: EC50 wild-type epimastigotes), 11.3 ± 0.5 nM; in data set [6] (Table 2, wild-type epimastigotes, read-out: EC50 WT), 2 ± 0.1 nM; in data set [8] (read-out: EC50 F222L) it was 486 ± 18 nM; in data set [8] (read-out: EC50 G36C/L197F cytb line) it was 1.2 ± 0.1 nM; in data set [8] (read-out: EC50 G36C/L197I cytb line), 37 ± 2 nM. For the same compound, the EC50 in [8] (read-out: EC50 L197F cytb line) was 1.1 ± 0.1 nM; in data set [8] (read-out: EC50 L197I), 21 ± 0.5 nM; in data set [8] (read-out: EC50 compound 5-resistant clone RES1) it was 417 ± 11 nM; in [8] (read-out: EC50 compound 5-resistant clone RES2), 585 ± 30 nM; in data set [8] (read-out: EC50 compound 5-resistant clone RES3), 635 ± 33 nM. In addition, in data set [7], half-maximal inhibition (IC50) was put at 1 ± 0.2 nM. The “fold change from WT, L197I” value in data set [8] (compound 3-resistant line (L197I)) is listed as 10 fold. For the same compound, in data set [8] (compound 5-resistant line (F222L)), the “fold change from WT, F222L” value amounted to 224 fold. In addition, the “cross-resistance of G36C and L197I epimastigotes” value in data set [8] (versus wild-type) is recorded as 9 fold.

As to `COc1ccccc1-c1c(C)[nH]c2nc(N)nc(C)c12` [Compound 1, 5-(2-methoxyphenyl)-4,6-dimethyl-7H-pyrrolo[2,3-d]pyrimidin-2-amine], the EC50 in data set [1] (setting [10]) was 316 nM; in data set [1] (read-out: Amastigotes EC50), 320 nM; in the data set on Vero host cells (read-out: Vero EC50) it was above 50000 nM; in the data set on Vero host cells (setting [11]), above 31600 nM; in data set [2] (read-out: Trypomastigotes EC50), 250 nM; in [2] (setting [12]), 251 nM. For the same compound, in the data set with HepG2 cells (read-out: HepG2 EC50), the EC50 was above 100000 nM. In addition, the “Vero pEC50” value in the data set on Vero host cells is on record as below 4.3. Besides, the IC50 at T. cruzi CYP51 was above 100000 nM. For the same compound, on T. cruzi CYP51 (direct biochemical assay), the “inhibition of recombinant T. cruzi CYP51” value is given as “did not inhibit”. For the same compound, the chromatographic logD in data set [3] worked out at 3.2. Also, the PFI in the data set “Property Forecast Index” turned out to be 6.2. In data set [4], this compound gave a solubility at 1 h of 110 µg/mL (≈ 410 µM). The “FaSSIF pH 6.5” value in “FaSSIF solubility assay” turned out to be 456 µg/mL.

As to `CC1CS(=O)(=O)CCN1/N=C/c1ccc([N+](=O)[O-])o1` (stereo not drawn) [NFX, nifurtimox], the “discontinuation of treatment prior to completion due to adverse side-effects” value in data set [9] is given as at most 43%.

The values above are taken from paper PMC7615676, “Short-course combination treatment for experimental chronic Chagas disease” (Science translational medicine, 2023).
